According to patent publication US10695562B2, “Interventional drug delivery system and associated methods” (The University of North Carolina at Chapel Hill, priority 2009, dated 2020):

Legend:
[1] = Gemcitabine transport in orthotopic xenograft tumors, transport testing system, HPLC; format: in vitro ADME; conditions: constant current 20 mA, 20 minutes, tumors 1.25 to 1.5 cm
Description: To assess and optimize the electrical transport parameters in tissue, a transport testing system was built (see FIG. 32A). The transport of gemcitabine, the current standard-of-care therapy for pancreatic cancer, was evaluated in orthotopic xenograft tumors using this transport testing system (see FIG. 32B). The tumors chosen for the studies were 1.25 to 1.5 cm in diameter because of compatibility with the size of the transport cell. The gemcitabine was used according to the current clinical formulation (Gemzar® to Eli Lilly and Company), at a concentration relevant to that administered in the clinic. For three tumors, a constant current of 20 mA was applied for 20 minutes, and the amount of gemcitabine was evaluated using a high-performance liquid chromatography (HPLC) analysis method. For three additional tumors, no current was applied, which allowed for passive diffusion of the gemcitabine into the tumor, and the amount of gemcitabine was evaluated using the same HPLC analysis method.

[2] = Plasma concentrations of gemcitabine, implantable device on canine pancreas, UV-HPLC; format: in vivo; design: key to Gem Concentration (plasma): *: Below limit of detection
Description: The reservoir based system similar to that shown in FIGS. 33A-D was surgically implanted onto the pancreas of a canine. All animal models were anesthetized and attached to a respirator for the entirety of the study. The implantable device approach was assessed via a laparotomy. The pancreas was assessed for ease of access.
There were three arms for the large animal experiment: 1. Device with current; 2. Device without current; and 3. IV Infusion (see Table 2). The device was sutured onto the right lobe of the canine pancreas. Gemcitabine formulated at clinically relevant concentrations was pumped into and out of the device at ˜1.5 mL/min during the application of 10 mA of current applied for 60 minutes. Control experiments were run without current. After administration of therapy, the pancreas was excised and snap frozen for analysis. The gemcitabine was measured from the section tissue using UV-HPLC from established protocols in the literature (see Olive, K P, et al. Science 324 (2009) 1457-1461 and Kirstein M N, et al., J Chromatogr B Analyt Technol Biomed Life Sci. 835 (2006) 136-142). Shown in FIG. 34 are the results obtained from the three experimental arms analyzing the mass of gemcitabine from the entire pancreas.
In FIG. 35, the transport distance of the gemcitabine is shown for the with and without current arms. […] Plasma concentrations of gemcitabine were detected at 15-minute increments prior to and during the large animal study. The tissue was sectioned using a cryostat microtome and gemcitabine was extracted using an established extraction method (see Olive et al.). The gemcitabine was detected and quantified using UV-HPLC (see Olive et al. and Kirstein et al.).

increase in the amount of gemcitabine within tumor compared to the control (no current applied) [1]: eight-fold increase
Gem Concentration (plasma) ([2]; Device - Current Applied (10 mA), sample 0 min): *
Gem Concentration (plasma) ([2]; Device - Current Applied (10 mA), sample 15 min): *
Gem Concentration (plasma) ([2]; Device - Current Applied (10 mA), sample 30 min): *
Gem Concentration (plasma) ([2]; Device - Current Applied (10 mA), sample 45 min): *
Gem Concentration (plasma) ([2]; Device - Current Applied (10 mA), sample 60 min): *
Gem Concentration (plasma) ([2]; Device - Current Applied (10 mA), sample −15 min): *
Gem Concentration (plasma) ([2]; Device - No Current, sample 0 min): *
Gem Concentration (plasma) ([2]; Device - No Current, sample 15 min): *
Gem Concentration (plasma) ([2]; Device - No Current, sample 30 min): *
Gem Concentration (plasma) ([2]; Device - No Current, sample 45 min): *
Gem Concentration (plasma) ([2]; Device - No Current, sample 60 min): *
Gem Concentration (plasma) ([2]; Device - No Current, sample −15 min): *
gemcitabine levels detected in the plasma of the dogs ([2]; with and without current arms, device on pancreas): below the detectable limit
SMILES: Nc1ccn([C@@H]2O[C@H](CO)[C@@H](O)C2(F)F)c(=O)n1 [Gemcitabine, gemcitabine]
